Results as given in PubChem BioAssay AID2060488 (Molecular Pharmacology Branch, DTP, NCI, 2025).

Tested on: 966289-007-R4-J1-PDC complex spheroid viability
Assay: Anticancer human tumor 966289-007-R4-J1-PDC patient-derived pancreatic adenocarcinoma cell line growth inhibition [GQUAD]
Settings: for IC50: curve of first compound; for viability, T/C: stronger effect = lower value
From the text: DNA G-quadruplex Stabilizer Agents in Combinations in Complex Spheroids
A high-throughput screen of multi-cell type tumor spheroids was designed to identify active combinations of DNA G-quadruplex stabilizer agents and targeted small molecules. Complex spheroids include a stromal component modeled by human endothelial cells (HUVEC) and fibroblasts modeled by human mesenchymal stem cells (MSCs). The concentration ranges selected for each drug and investigational agent were based upon clinically achievable concentrations if the clinical Cmax of the agent was known.
Compounds. The drugs and investigational agents: pidnarulex (CX-5461; NSC782164), APTO-253 (NSC789042), BRACO-19 (NSC847499), peposertib (NSC802822), ceralasertib (NSC780249), elimusertib (NSC800525), camonsertib (NSC841442), AZD-1390 (NSC803789), olaparib (NSC753686), talazoparib (NSC767125), ART-558 (NSC835418), sotorasib (NSC818433), MRTX-1133 (NSC836407), SN-38 (NSC673596), topotecan (NSC609699), etoposide (NSC141540), doxorubicin (NSC123127), gemcitabine (NSC613327), 5-fluorouracil (NSC19893), paclitaxel (NSC125973), vemurafenib (NSC761431), panobinostat (NSC761190), R-306465 (JNJ-16241199; NSC773264), adavosertib (NSC754352), TP-3654 (NSC805149), carboplatin (NSC241240), KSQ-4279 (NSC840948), and staurosporine (NSC755774) were obtained from the National Cancer Institute (NCI) Developmental Therapeutics Program Chemical Repository (34). The FDA-approved anticancer drug set is available from the NCI Developmental Therapeutics Program. […] The stock solutions were prepared in dimethyl sulfoxide (DMSO, Sigma-Aldrich, St. Louis, MO, cat. D2650) at 800-fold the tested concentration and stored at -70 degrees C prior to their use. All drugs and investigational agents were tested over a range starting from a high concentration at or near the clinical Cmax and decreasing in half-log increments. If the clinical Cmax for an agent had not been determined, the highest concentration tested was 10 microM.
2.3 Cell Culture. All cells were maintained in an incubator at 37 degrees C and 5% CO2 with 95% humidity. The PDC lines were cultured according to standard operating procedures established by the NCI PDMR. All PDCs were thawed and cultured in Matrigel-coated flasks prepared with a working solution of 1X Ham's F-12 nutrient mix, without supplementation (Invitrogen, cat. 11765054), 100 U/mL penicillin-streptomycin (Invitrogen, cat. 15140122), and 2.5% Matrigel (Corning Inc., cat. 354248) for the first three passages. The 857933-349-R-J2-PDC line was cultured in 6C/Colon 1B media, which includes advanced DMEM/F-12 (Thermo Fisher Scientific, cat. 12634028), 10 mM HEPES (Thermo Fisher Scientific, cat. 15630080), 1X GlutaMAX supplement (Thermo Fisher Scientific, cat. 35050061), 0.1 mg/mL primocin (InvivoGen, cat. ant-pm-2), 10% defined fetal bovine serum, heat inactivated (HyClone Laboratories Inc., cat. SH30070.03HI), 50% L-WRN conditioned media (ATCC, cat. CRL-3276), 1.25 mM N-Acetyl-L-cysteine (Sigma-Aldrich, cat. A9165), 10 mM nicotinamide (Sigma-Aldrich, cat. N0636), 1X B-27 supplement (Thermo Fisher Scientific, cat. 17504044), 1X N-2 supplement (Thermo Fisher Scientific, cat. 17502048), 10 microM Y-27632 dihydrochloride (Tocris Bioscience, cat. 1254), and 50 ng/mL human EGF recombinant protein (Thermo Fisher Scientific, cat. PHG0311). The 485176-168-R4-J1-PDC line was cultured in Panc media, which includes all 6C/Colon 1B media components plus 100 ng/mL human FGF-10 (Thermo Fisher Scientific, cat. 100-26), 500 nM SB-431542 (Selleckchem, cat. S1067), and gastrin (Tocris, cat. 3006).
[…]

[1] = second compound 0.0316 µM, first compound 0.0316 µM
[2] = second compound 0.0316 µM, first compound 0.1 µM
[3] = second compound 0.0316 µM, first compound 0.316 µM
[4] = second compound 0.0316 µM, first compound 1 µM
[5] = second compound 0.0316 µM, first compound 3.16 µM
[6] = second compound 0.0316 µM, first compound 10 µM
[7] = second compound 0.1 µM, first compound 0.0316 µM
[8] = second compound 0.1 µM, first compound 0.1 µM
[9] = second compound 0.1 µM, first compound 0.316 µM
[10] = second compound 0.1 µM, first compound 1 µM
[11] = second compound 0.1 µM, first compound 3.16 µM
[12] = second compound 0.1 µM, first compound 10 µM
[13] = second compound 0.316 µM, first compound 0.0316 µM
[14] = second compound 0.316 µM, first compound 0.1 µM
[15] = second compound 0.316 µM, first compound 0.316 µM
[16] = second compound 0.316 µM, first compound 1 µM
[17] = second compound 0.316 µM, first compound 3.16 µM
[18] = second compound 0.316 µM, first compound 10 µM
[19] = second compound 1 µM, first compound 0.0316 µM
[20] = second compound 1 µM, first compound 0.1 µM
[21] = second compound 1 µM, first compound 0.316 µM
[22] = second compound 1 µM, first compound 1 µM
[23] = second compound 1 µM, first compound 3.16 µM
[24] = second compound 1 µM, first compound 10 µM
[25] = second compound 3.16 µM, first compound 0.0316 µM
[26] = second compound 3.16 µM, first compound 0.1 µM
[27] = second compound 3.16 µM, first compound 0.316 µM
[28] = second compound 3.16 µM, first compound 1 µM
[29] = second compound 3.16 µM, first compound 3.16 µM
[30] = second compound 3.16 µM, first compound 10 µM
[31] = second compound 10 µM, first compound 0.0316 µM
[32] = second compound 10 µM, first compound 0.1 µM
[33] = second compound 10 µM, first compound 0.316 µM
[34] = second compound 10 µM, first compound 1 µM
[35] = second compound 10 µM, first compound 3.16 µM
[36] = second compound 10 µM, first compound 10 µM
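Note: spheroids exposed to the agents for seven days before readout.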
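Throughout, for viability, T/C: percent viability relative to DMSO vehicle control wells taken as 100%.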

Compound `CC1COCCN1c1cc(C2(S(C)(=N)=O)CC2)nc(-c2ccnc3[nH]ccc23)n1` (stereo unspecified) + CN(C)c1ccc(Nc2c3ccc(NC(=O)CCN4CCCC4)cc3nc3cc(NC(=O)CCN4CCCC4)ccc23)cc1 has an IC50 (second compound 0.0316 µM) of 4.69 µM, an IC50 (second compound 0.1 µM) of 4.36 µM and an IC50 (second compound 0.316 µM) of 4.25 µM. It also gave an IC50 (second compound 1 µM) of 4.42 µM, an IC50 (second compound 3.16 µM) of 3.93 µM and an IC50 (second compound 10 µM) of 2 µM. It also gave a viability, T/C [1] of 106%, a viability, T/C [2] of 102% and a viability, T/C [3] of 102%. It also gave a viability, T/C [4] of 101%, a viability, T/C [5] of 69.8% and a viability, T/C [6] of 12.3%. The viability, T/C [7] was 100%, the viability, T/C [8] was 101% and the viability, T/C [9] was 102%. It also gave a viability, T/C [10] of 105%, a viability, T/C [11] of 64.7% and a viability, T/C [12] of 12.1%. It also gave a viability, T/C [13] of 99.8%, a viability, T/C [14] of 102% and a viability, T/C [15] of 104%. The viability, T/C [16] was 99.8%, the viability, T/C [17] was 62.6% and the viability, T/C [18] was 12.8%. For the same compound, the viability, T/C [19] was 89.5%, the viability, T/C [20] was 97% and the viability, T/C [21] was 104%. For the same compound, the viability, T/C [22] was 103%, the viability, T/C [23] was 65.5% and the viability, T/C [24] was 12.3%. The viability, T/C [25] was 99.8%, the viability, T/C [26] was 100% and the viability, T/C [27] was 106%. For the same compound, the viability, T/C [28] was 104%, the viability, T/C [29] was 58.8% and the viability, T/C [30] was 12.4%. The viability, T/C [31] was 104%, the viability, T/C [32] was 101% and the viability, T/C [33] was 101%. The viability, T/C [34] was 94%, the viability, T/C [35] was 20.9% and the viability, T/C [36] was 4.7%.

`COc1ccc([C@@H](O)c2cc(-c3ncnc4cc(N5CCOCC5)ccc34)c(F)cc2Cl)nn1` + CN(C)c1ccc(Nc2c3ccc(NC(=O)CCN4CCCC4)cc3nc3cc(NC(=O)CCN4CCCC4)ccc23)cc1 showed an IC50 (second compound 0.0316 µM) greater than 10 µM, an IC50 (second compound 0.1 µM) greater than 10 µM and an IC50 (second compound 0.316 µM) greater than 10 µM. The IC50 (second compound 1 µM) was greater than 10 µM, the IC50 (second compound 3.16 µM) was greater than 10 µM and the IC50 (second compound 10 µM) was 1.97 µM. For the same compound, the viability, T/C [1] was 104%, the viability, T/C [2] was 98.6% and the viability, T/C [3] was 104%. For the same compound, the viability, T/C [4] was 108%, the viability, T/C [5] was 110% and the viability, T/C [6] was 99.5%. It also gave a viability, T/C [7] of 101%, a viability, T/C [8] of 97.8% and a viability, T/C [9] of 103%. It also gave a viability, T/C [10] of 104%, a viability, T/C [11] of 109% and a viability, T/C [12] of 98.1%. For the same compound, the viability, T/C [13] was 99.8%, the viability, T/C [14] was 99.5% and the viability, T/C [15] was 106%. It also gave a viability, T/C [16] of 107%, a viability, T/C [17] of 107% and a viability, T/C [18] of 90.6%. The viability, T/C [19] was 101%, the viability, T/C [20] was 101% and the viability, T/C [21] was 107%. It also gave a viability, T/C [22] of 108%, a viability, T/C [23] of 111% and a viability, T/C [24] of 93%. It also gave a viability, T/C [25] of 101%, a viability, T/C [26] of 97.4% and a viability, T/C [27] of 108%. It also gave a viability, T/C [28] of 105%, a viability, T/C [29] of 109% and a viability, T/C [30] of 83.4%. The viability, T/C [31] was 103%, the viability, T/C [32] was 97.3% and the viability, T/C [33] was 101%. The viability, T/C [34] was 89.2%, the viability, T/C [35] was 22.6% and the viability, T/C [36] was 8.27%.

In the case of `O=C(c1cc(Cc2n[nH]c(=O)c3ccccc23)ccc1F)N1CCN(C(=O)C2CC2)CC1` + CN(C)c1ccc(Nc2c3ccc(NC(=O)CCN4CCCC4)cc3nc3cc(NC(=O)CCN4CCCC4)ccc23)cc1, the IC50 (second compound 0.0316 µM) is reported as 4.87 µM, the IC50 (second compound 0.1 µM) is reported as 5.02 µM and the IC50 (second compound 0.316 µM) is reported as 4.91 µM. The IC50 (second compound 1 µM) was 5.07 µM, the IC50 (second compound 3.16 µM) was 3.74 µM and the IC50 (second compound 10 µM) was 1.93 µM. The viability, T/C [1] was 106%, the viability, T/C [2] was 104% and the viability, T/C [3] was 110%. It also gave a viability, T/C [4] of 105%, a viability, T/C [5] of 74.2% and a viability, T/C [6] of 9.57%. The viability, T/C [7] was 104%, the viability, T/C [8] was 97.9% and the viability, T/C [9] was 107%. It also gave a viability, T/C [10] of 109%, a viability, T/C [11] of 76.7% and a viability, T/C [12] of 10.2%. It also gave a viability, T/C [13] of 100%, a viability, T/C [14] of 103% and a viability, T/C [15] of 101%. It also gave a viability, T/C [16] of 108%, a viability, T/C [17] of 75.1% and a viability, T/C [18] of 9.35%. The viability, T/C [19] was 99.7%, the viability, T/C [20] was 99.3% and the viability, T/C [21] was 104%. For the same compound, the viability, T/C [22] was 109%, the viability, T/C [23] was 79% and the viability, T/C [24] was 8.19%. For the same compound, the viability, T/C [25] was 105%, the viability, T/C [26] was 104% and the viability, T/C [27] was 101%. For the same compound, the viability, T/C [28] was 107%, the viability, T/C [29] was 57.4% and the viability, T/C [30] was 6.49%. For the same compound, the viability, T/C [31] was 102%, the viability, T/C [32] was 103% and the viability, T/C [33] was 104%. It also gave a viability, T/C [34] of 95.7%, a viability, T/C [35] of 15.6% and a viability, T/C [36] of 3.36%.
